From patent publication US20220118057A1, “ALBUMIN NANOPARTICLES, THE MAKING METHOD, AND USES THEREOF” (NOVAGENESIS THERAPEUTIX (HK) LIMITED, priority 2019, published 2022)

Assays:
BxPC-3 KRAS^G12V = assay: BSA macropinocytosis (6-TAMRA-BSA uptake), flow cytometry and confocal microscopy; assay type: cell-based, human; conditions: 75 μM EIPA pretreatment 30 minutes
Procedure: (§1) 4 pancreatic cancer cell lines, MIA PaCa-2 control, MIA PaCa-2 KRAS KD, BxPC-3 control and BxPC-3 KRAS^G12V (10^5 cells per well, 1 mL) were inoculated in a 12-well microplate (Corning, N.Y., USA) and incubated at 37° C. and 5% CO2. When the cell density reached approximately 65%, the cell culture medium was replaced with a serum-free culture medium. After 12 hours, the culture medium was removed again and replaced with DMEM containing 1 mg/mL 6-TAMRA-BSA (500 μL/well). After incubated for another 4 hours, the cells were washed, digested and suspended in PBS (400 μL) and subjected to fluorescence analysis on a flow cytometer (BD, FACS Calibur, USA) using a 544 nm laser excitation and a 575 nm emission filter. Based on forward scattering and side scattering analysis, viable cells (10,000 cells/sample) were counted to detect the fluorescence intensity of the cells. For the EIPA (a known macropinocytosis inhibitor) inhibition experiment, cells were incubated with serum-free culture medium for 12 hours, pretreated with 75 μM of EIPA for 30 minutes, then replaced with fresh DMEM containing 1 mg/ml 6-TAMRA-BSA was added (500 μL/well).
(§2) Cells were cultured and treated as described above and grown on coverslips. After cell nuclei were stained with DAPI, the cells grown on the coverslips were observed under a multiphoton confocal Ti-E A1RMP inverted microscope (Nikon, Japan).

BxPC-3 control = assay: as above; assay type: cell-based, human; conditions: 75 μM EIPA pretreatment 30 minutes
Procedure: as §1, §2

MIA PaCa-2 KRAS KD = assay: as above; assay type: cell-based, human; conditions: 75 μM EIPA pretreatment 30 minutes
Procedure: as §1, §2

MIA PaCa-2 control [1] = assay: as above; assay type: cell-based, human; conditions: 75 μM EIPA pretreatment 30 minutes
Procedure: as §1, §2

[2] = Solubility and apparent drug concentration; assay type: physicochemical
[3] = test system: porcine liver esterase (PLE); assay: Conversion of dC3 to β-lap at different BSA concentrations; assay type: in vitro ADME
Procedure: In order to study the effect of BSA on the conversion of dC3 to β-lap catalyzed by an esterase, dC3 was dissolved in DMSO (final DMSO concentration <0.5%), and then added dropwise to a solution of 1 M sodium salicylate, 1 U/mL porcine liver esterase (PLE) and different concentrations of BSA. The solution was shaken in a water bath at 60 rpm at 37° C. At predetermined time points (5, 10, 15, 30, 45, 60, 90, and 120 minutes), each 0.5 mL of release medium were taken out and replaced with an equal volume of fresh medium. The removed release medium was mixed with 0.5 mL of acetonitrile, and centrifuged for 10 minutes at 10,000 rpm to remove denatured proteins. The concentration of β-lap was analyzed by H PLC.
In order to study whether the effect of BSA on dC3-β-lap conversion catalyzed by an esterase will change in the presence of the polymer, the above-mentioned experiments were also conducted with the amount of PEG5K-β-PLA5K proportional to micelle preparation. Other conditions remained unchanged.

MIA PaCa-2 control [4] = assay: In vitro cytotoxicity, MTS assay; assay type: cell-based, human; conditions: PLE 1 U/mL; slightly higher than β-lap
Description: KRAS mutant cells MIA PaCa-2 (KRAS^G12C) and KRAS wild-type (KRAS^WT) BxPC-3 were selected for experiments. The expression levels of mutant KRAS in MIA PaCa-2 and BxPC-3 cells were manipulated. According to the supplier's protocol, MIA PaCa-2 cells with low expression level of KRAS were realized by lentiviral-mediated construction and transfection of pCDH-KRas-shRNA; control MIA PaCa-2 cells were realized by lentiviral-mediated transfection of pCDH vector; BxPC-3 cells with high expression level of KRAS were realized by lentiviral-mediated construction and transfection of pCDH-KRas-G12V, and control BxPC-3 cells were realized by lentiviral-mediated transfection of pCDH vector. All plasmids were purchased from […] Addgene (USA). The plasmid was transfected into the cells using transfection reagents (Promega, USA). 1 μg/mL puromycin was added to the culture medium for 48 hours to select stable transfected cell lines. Cells were represented as MIA PaCa-2 control, MIA PaCa-2 KRAS KD, BxPC-3 control and BxPC-3 KRAS^G12V.
Briefly, four pancreatic cancer cell lines were firstly inoculated into a 96-well culture plate (4000 cells/well), each well containing 0.1 mL of cell culture medium. […] The mean value of 6 wells per treatment was calculated and the treatment/control (T/C) value was calculated as a percentage of cell survival rate. […]

[5] = Pharmacokinetics of dC3 and β-lap after intravenous injection; assay type: in vivo, Sprague Dawley rats; conditions: Sprague Dawley, rat, plasma, 50 mg/kg (β-lap equivalent dose), β-lap once converted from dC3, read-out: pharmacokinetic half-life
Procedure: The comparison of pharmacokinetics of different preparations in Sprague Dawley rats (n=3 per group) was performed. […] The blood samples were centrifuged at 4° C. and 1000 rpm for 3 minutes. The plasma concentrations of β-lap and dC3 were analyzed by LC-MS/MS (AB Sciex QTRAP 5500, USA).

SW1990 (KRAS^G12D) = assay: In vitro cytotoxicity, MTS assay; assay type: cell-based
Procedure: (§3) Briefly, four pancreatic cancer cell lines were firstly inoculated into a 96-well culture plate (4000 cells/well), each well containing 0.1 mL of cell culture medium. […] PLE (1 U/mL) was added concurrently with the dC3 preparation. The cells were further incubated for 12 hours, then the culture medium containing drugs was removed and new culture medium without drug was added. Relative survival curves of the four pancreatic cancer cell lines were obtained using the MTS assay (Promega, USA). The mean value of 6 wells per treatment was calculated and the treatment/control (T/C) value was calculated as a percentage of cell survival rate. All calculations were performed by GraphPad Prism 7 software (GraphPad Software, USA).
(§4) The relative survival profiles of pancreatic cancer cells SW1990 (KRAS^G12D) and SW1990/GEM (KRAS^G12D) were also measured using the same method. SW1990/GEM was cultured in a culture medium with 50 μM gemcitabine to maintain drug resistance.

SW1990/GEM (KRAS^G12D) = assay: In vitro cytotoxicity, MTS assay; assay type: cell-based
Procedure: as §3, §4

Compound: CCN(c1nc(N)c(C(=O)N=C(N)N)nc1Cl)C(C)C [EIPA, 5-[N-ethyl-N-isopropyl] amiloride]
- effect on 6-TAMRA-BSA uptake (macropinocytosis) (BxPC-3 KRAS^G12V): can be inhibited
- effect on BSA uptake (BxPC-3 control): almost had no effect
- effect on BSA uptake (MIA PaCa-2 KRAS KD): almost had no effect
- effect on 6-TAMRA-BSA uptake (macropinocytosis) (MIA PaCa-2 control [1]): can be inhibited

Compound: CCC(=O)Oc1c2c(c3ccccc3c1OC(=O)CC)OC(C)(C)CC2 [dC3]
- solubility [2]: < 0.1 µg/mL
- dC3-β-lap conversion ratio ([3]; BSA introduced at a low BSA-dC3 ratio, PLE): significantly reduced
- dC3-β-lap conversion ([3]; BSA plus small amount of PEG-b-PLA proportional to micelle preparation): accelerated
- IC50 values, compared among dC3 treatments (MIA PaCa-2 control [4]): comparable

Compound: CC1(C)CCC2=C(O1)c1ccccc1C(=O)C2=O [β-lap, β-lapachone]
- half-life [5]: ~24 min
- inhibition of cells (SW1990 (KRAS^G12D)): effectively inhibit
- inhibition of cells (SW1990/GEM (KRAS^G12D)): effectively inhibit
